Source: paper PMC9019904, “AD Informer Set: Chemical tools to facilitate Alzheimer's disease drug discovery” (Alzheimer's & Dementia : Translational Research & Clinical …, 2022)

Assays:
[1] = test system: HMC3 (human microglia) cell line; experiment: pHrodo-myelin phagocytosis/cell viability high content imaging assay: phagocytosis signal; format: cell-based
How it was run: (§1)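 High content imaging, roughly 22 hours post pHrodo-myelin addition, recorded phagocytosis signal alongside viability in microglial lines BV2 (mouse) and HMC3 (human). Apoptosis tracked through intensity rise (early) and fall (later) among three extracted measurements.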

[2] = test system: BV2 (mouse microglia) cell line; experiment: as above; format: cell-based
How it was run: as §1

[3] = test system: HMC3 (human microglia) cell line; experiment: pHrodo-myelin phagocytosis/cell viability high content imaging assay: viability (cell count, nuclear area, nuclear intensity); conditions: 48 hours treatment
How it was run: (§2)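 Immortalized microglia are treated with compound (10 μM, single concentration) for 48 h, the final 20 h alongside pHrodo-myelin. Data are the mean of duplicates, reported as % of untreated control.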

[4] = test system: BV2 (mouse microglia) cell line; experiment: as above; conditions: 48 hours treatment
How it was run: as §2

[5] = HMC3, compound 10 uM, pHrodo-myelin
[6] = BV2, compound 10 uM, pHrodo-myelin
[7] = HMC3 cells, 10 uM compound, 48 hours treatment, pHrodo-myelin final 20 hours
[8] = BV2 cells, 10 uM compound, 48 hours treatment, pHrodo-myelin final 20 hours

## C[C@H](NC(=O)c1sccc1OCc1ccc(Cl)cc1)c1ccccc1 [UNC10302704A]
[1]; [5]
  4. Phagocytosis (% control): 66.4 % control
[2]; [6]
  4. Phagocytosis (% control): 123.4 % control
[3]; HMC3, compound 10 uM
  1. Cell count (% control): 112.7 % control
  2. Nuclear Area (% Control): 95.6 % Control
  3. Nuclear DNA Intensity (% control): 89.7 % control
[4]; BV2, compound 10 uM
  1. Cell count (% control): 95.5 % control
  2. Nuclear Area (% Control): 101.0 % Control
  3. Nuclear DNA Intensity (% control): 97.2 % control

## COc1ccc(CCCN2CCC(COC(c3ccccc3)c3ccccc3)CC2)cc1 [UNC10303165A]
[1]; [5]
  4. Phagocytosis (% control): 43.5 % control
[2]; [6]
  4. Phagocytosis (% control): 176.2 % control
[3]; HMC3, compound 10 uM
  1. Cell count (% control): 110.9 % control
  2. Nuclear Area (% Control): 113.8 % Control
  3. Nuclear DNA Intensity (% control): 93.8 % control
[4]; BV2, compound 10 uM
  1. Cell count (% control): 87.4 % control
  2. Nuclear Area (% Control): 108.5 % Control
  3. Nuclear DNA Intensity (% control): 107.0 % control

## Cc1cc(OCc2nnc(SC3CCCC3)n2-c2cccnc2)ccc1-c1ccc(S(C)(=O)=O)cc1 [UNC10302838A]
[1]; [5]
  4. Phagocytosis (% control): 33.5 % control
[2]; [6]
  4. Phagocytosis (% control): 0.0 % control
[3]; HMC3, compound 10 uM
  1. Cell count (% control): 58.3 % control
  2. Nuclear Area (% Control): 51.1 % Control
  3. Nuclear DNA Intensity (% control): 240.9 % control
[4]; BV2, compound 10 uM
  1. Cell count (% control): 15.0 % control
  2. Nuclear Area (% Control): 98.1 % Control
  3. Nuclear DNA Intensity (% control): 45.6 % control

## CC(=O)NCC(=O)N1[C@@H]2CC[C@H]1c1ccc(Nc3ncc(C(F)(F)F)c(NC4CCC4)n3)cc12 [UNC10302896A]
[1]; [7]
  4. Phagocytosis (% control): 16.0 % control
[2]; [8]
  4. Phagocytosis (% control): 0.15 % control
[3]; HMC3 cells, 10 uM compound
  1. Cell count (% control): 69.3 % control
  2. Nuclear Area (% Control): 158.3 % Control
  3. Nuclear DNA Intensity (% control): 82.5 % control
[4]; BV2 cells, 10 uM compound
  1. Cell count (% control): 18.3 % control
  2. Nuclear Area (% Control): 110.7 % Control
  3. Nuclear DNA Intensity (% control): 18.8 % control

## CCCCCCCCCCCCCCCCOCC(COCC(F)(F)F)OP(=O)([O-])OC.[Li+] (stereo not shown) [UNC8441A]
[1]; [5]
  4. Phagocytosis (% control): 43.1 % control
[2]; [6]
  4. Phagocytosis (% control): 99.7 % control
[3]; HMC3, compound 10 uM
  1. Cell count (% control): 76.1 % control
  2. Nuclear Area (% Control): 97.9 % Control
  3. Nuclear DNA Intensity (% control): 109.2 % control
[4]; BV2, compound 10 uM
  1. Cell count (% control): 80.6 % control
  2. Nuclear Area (% Control): 107.7 % Control
  3. Nuclear DNA Intensity (% control): 98.9 % control

## CN(C)CC1CCOC1(c1ccccc1)c1ccccc1.Cl (stereo not shown) [UNC10303096A]
[1]; [7]
  4. Phagocytosis (% control): 111.9 % control
[2]; [8]
  4. Phagocytosis (% control): 256.6 % control
[3]; HMC3 cells, 10 uM compound
  1. Cell count (% control): 129.8 % control
  2. Nuclear Area (% Control): 100.5 % Control
  3. Nuclear DNA Intensity (% control): 94.9 % control
[4]; BV2 cells, 10 uM compound
  1. Cell count (% control): 103.1 % control
  2. Nuclear Area (% Control): 105.3 % Control
  3. Nuclear DNA Intensity (% control): 104.2 % control

## CC[C@H](C)[C@H](N)C(=O)NCCN1CCOCC1.Cl.Cl [UNC10303094A]
[1]; [7]
  4. Phagocytosis (% control): 75.5 % control
[2]; [8]
  4. Phagocytosis (% control): 157.3 % control
[3]; HMC3 cells, 10 uM compound
  1. Cell count (% control): 133.1 % control
  2. Nuclear Area (% Control): 103.2 % Control
  3. Nuclear DNA Intensity (% control): 95.9 % control
[4]; BV2 cells, 10 uM compound
  1. Cell count (% control): 133.1 % control
  2. Nuclear Area (% Control): 103.4 % Control
  3. Nuclear DNA Intensity (% control): 103.6 % control

## Oc1c(F)cc(-c2cnccc2-c2ccc(N3CCOCC3)cc2)cc1F [UNC10302871A]
[1]; [5]
  4. Phagocytosis (% control): 84.7 % control
[2]; [6]
  4. Phagocytosis (% control): 174.2 % control
[3]; HMC3, compound 10 uM
  1. Cell count (% control): 123.1 % control
  2. Nuclear Area (% Control): 101.3 % Control
  3. Nuclear DNA Intensity (% control): 92.9 % control
[4]; BV2, compound 10 uM
  1. Cell count (% control): 98.2 % control
  2. Nuclear Area (% Control): 107.6 % Control
  3. Nuclear DNA Intensity (% control): 98.3 % control
